Measured values from patent publication US11058661B2, “Compositions and methods for lowering triglycerides in a subject on concomitant statin therapy and having hsCRP levels of at least about 2 mg/L” (priority 2018, dated 2021).

Experiment: AAMI pilot study: essential fatty acids in plasma and RBC
Type: in vivo, human
Experimental: Blood samples (10 mL) were collected at Visit 1 (screening) and at Visits 4, 5 and 6. Analysis was performed by MSR Lipid Analysis, Scottish Crop Research Institute, Dundee, UK. The screening sample acted as baseline for the EFA measurements. Lipid was extracted from plasma, serum and RBC suspensions and converted into fatty acid methyl esters which were analyzed by gas chromatography to give fatty acid profiles as micrograms fatty acid per gram of sample (μgFA/g) and normalized area percent. RBC and plasma EFA data were collected at baseline, Day 14, 28 and 42 and summarized by visit for each treatment group. Change from baseline and percent change from baseline were also summarized. ANCOVA comparison of ethyl-EPA dose groups and ethyl-EPA versus placebo was performed.

Structure (SMILES): CC/C=C\C/C=C\C/C=C\C/C=C\C/C=C\CCCC(=O)OCC [Icosapent Ethyl, ethyl eicosapentaenoate]
- DHA LS Mean, 1 g versus 4 g (RBC): 1.0 µg/g
- DHA LS Mean, 2 g versus 4 g (RBC): 1.0 µg/g
- DPAn-3 LS Mean, 1 g versus 4 g (RBC): -6.2 µg/g
- DPAn-3 LS Mean, 2 g versus 4 g (RBC): -2.5 µg/g
- AA Mean (SD) change from Baseline (RBC, Day 14, 1 g): −8.1 (21.95) μg/g
- DGLA Mean (SD) change from Baseline (RBC, Day 14, 1 g): −2.7 (3.82) μg/g
- DHA Mean (SD) change from Baseline (RBC, Day 14, 1 g): −4.6 (9.76) μg/g
- DPAn-3 Mean (SD) change from Baseline (RBC, Day 14, 1 g): 0.9 (5.03) μg/g
- EPA/AA Mean (SD) change from Baseline (RBC, Day 14, 1 g): 0.1 (0.04) μg/g
- AA Mean (SD) change from Baseline (RBC, Day 14, 2 g): −3.1 (25.84) μg/g
- DGLA Mean (SD) change from Baseline (RBC, Day 14, 2 g): −2.6 (3.54) μg/g
- DHA Mean (SD) change from Baseline (RBC, Day 14, 2 g): −2.0 (9.46) μg/g
- DPAn-3 Mean (SD) change from Baseline (RBC, Day 14, 2 g): 5.6 (6.28) μg/g
- EPA/AA Mean (SD) change from Baseline (RBC, Day 14, 2 g): 0.2 (0.04) μg/g
- DGLA Mean (SD) change from Baseline (RBC, Day 14, 4 g): −5.3 (4.10) μg/g
- DHA Mean (SD) change from Baseline (RBC, Day 14, 4 g): −6.9 (9.13) μg/g
- DPAn-3 Mean (SD) change from Baseline (RBC, Day 14, 4 g): 5.4 (5.38) μg/g
- EPA/AA Mean (SD) change from Baseline (RBC, Day 14, 4 g): 0.3 (0.07) μg/g
- AA Mean (SD) change from Baseline (RBC, Day 28, 1 g): −17.0 (20.69) μg/g
- DGLA Mean (SD) change from Baseline (RBC, Day 28, 1 g): −3.8 (3.31) μg/g
- DHA Mean (SD) change from Baseline (RBC, Day 28, 1 g): −6.4 (11.57) μg/g
- DPAn-3 Mean (SD) change from Baseline (RBC, Day 28, 1 g): 3.3 (5.42) μg/g
- EPA/AA Mean (SD) change from Baseline (RBC, Day 28, 1 g): 0.1 (0.05) μg/g
- DGLA Mean (SD) change from Baseline (RBC, Day 28, 2 g): −4.5 (3.58) μg/g
- DHA Mean (SD) change from Baseline (RBC, Day 28, 2 g): −6.2 (9.34) μg/g
- DPAn-3 Mean (SD) change from Baseline (RBC, Day 28, 2 g): 9.4 (6.74) μg/g
- EPA/AA Mean (SD) change from Baseline (RBC, Day 28, 2 g): 0.02 (0.06) μg/g
- DGLA Mean (SD) change from Baseline (RBC, Day 28, 4 g): −7.1 (4.63) μg/g
- DHA Mean (SD) change from Baseline (RBC, Day 28, 4 g): −8.7 (11.63) μg/g
- EPA/AA Mean (SD) change from Baseline (RBC, Day 28, 4 g): 0.4 (0.11) μg/g
- DGLA Mean (SD) change from Baseline (RBC, Day 42, 1 g): −3.5 (4.51) μg/g
- DHA Mean (SD) change from Baseline (RBC, Day 42, 1 g): −7.0 (12.20) μg/g
- DPAn-3 Mean (SD) change from Baseline (RBC, Day 42, 1 g): 6.5 (6.19) μg/g
- EPA/AA Mean (SD) change from Baseline (RBC, Day 42, 1 g): 0.1 (0.06) μg/g
- DGLA Mean (SD) change from Baseline (RBC, Day 42, 2 g): −5.3 (3.65) μg/g
- DHA Mean (SD) change from Baseline (RBC, Day 42, 2 g): −6.3 (9.42) μg/g
- EPA/AA Mean (SD) change from Baseline (RBC, Day 42, 2 g): 0.3 (0.06) μg/g
- DGLA Mean (SD) change from Baseline (RBC, Day 42, 4 g): −8.0 (4.98) μg/g
- EPA/AA Mean (SD) change from Baseline (RBC, Day 42, 4 g): 0.4 (0.14) μg/g
- DPAn-3 LS Mean, 2 g versus 4 g (plasma): -9.5 µg/g
- EPA values, change from baseline (plasma and RBC, to Day 42, 1, 2 and 4 g groups): increased substantially from baseline
- AA Mean (SD) change from Baseline (plasma, Day 14, 1 g): −9.7 (22.20) μg/g
- DHA Mean (SD) change from Baseline (plasma, Day 14, 1 g): −6.4 (13.30) μg/g
- DPAn-3 Mean (SD) change from Baseline (plasma, Day 14, 1 g): 7.5 (5.11) μg/g
- EPA/AA Mean (SD) change from Baseline (plasma, Day 14, 1 g): 0.3 (0.4) μg/g
- DHA Mean (SD) change from Baseline (plasma, Day 14, 2 g): −5.4 (14.29) μg/g
- EPA/AA Mean (SD) change from Baseline (plasma, Day 14, 2 g): 0.6 (0.23) μg/g
- EPA/AA Mean (SD) change from Baseline (plasma, Day 14, 4 g): 1.1 (0.28) μg/g
- DHA Mean (SD) change from Baseline (plasma, Day 28, 1 g): −6.6 (15.53) μg/g
- DPAn-3 Mean (SD) change from Baseline (plasma, Day 28, 1 g): 3.9 (5.62) μg/g
- EPA/AA Mean (SD) change from Baseline (plasma, Day 28, 1 g): 0.3 (0.20) μg/g
- DHA Mean (SD) change from Baseline (plasma, Day 28, 2 g): −8.1 (15.82) μg/g
- EPA/AA Mean (SD) change from Baseline (plasma, Day 28, 2 g): 0.8 (0.35) μg/g
- EPA/AA Mean (SD) change from Baseline (plasma, Day 28, 4 g): 1.3 (0.42) μg/g
- AA Mean (SD) change from Baseline (plasma, Day 42, 1 g): −8.7 (31.35) μg/g
- DGLA Mean (SD) change from Baseline (plasma, Day 42, 1 g): −9.4 (9.41) μg/g
- DHA Mean (SD) change from Baseline (plasma, Day 42, 1 g): −5.4 (18.17) μg/g
- EPA/AA Mean (SD) change from Baseline (plasma, Day 42, 1 g): 0.3 (0.24) μg/g
- DHA Mean (SD) change from Baseline (plasma, Day 42, 2 g): −6.0 (16.69) μg/g
- EPA/AA Mean (SD) change from Baseline (plasma, Day 42, 2 g): 0.7 (0.29) μg/g
- DPAn-3 Mean (SD) change from Baseline (plasma, Day 42, 4 g): 32.0 (16.01) μg/g
- EPA/AA Mean (SD) change from Baseline (plasma, Day 42, 4 g): 1.3 (0.45) μg/g
